# Laboratory results published in patent publication US20230085307A1, “PYRIDAZINONE COMPOUND AND HERBICIDE” (NISSAN CHEMICAL CORPORATION, priority 2019, published 2023).
# Assays:
# [1] = tested on: persian speedwell; assay: Test Example 5: herbicidal effect by foliage application, plastic box (Table 20, symbol R); assay type: in vivo, Persian speedwell (Veronica persica); conditions: foliage application, 320 g/ha, three weeks after application
# Outline: (§1)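 Foliar spray test: emulsion formulation diluted in water to a set application rate, sprayed onto 14-day-old plants raised in diluvial soil at 25° C to 30° C under glass. Both herbicidal effect and crop effect rated visually three weeks later.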
# [2] = tested on: barnyard grass; assay: Test Example 4: herbicidal effect by soil treatment (Table 19, symbol H); assay type: in vivo, barnyard grass (Echinochloa crus-galli); conditions: amount of applied herbicide 320 g/ha
# Outline: (§2)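 Herbicidal effect was rated 3 weeks after treatment, using the scoring criteria of an earlier test. The compound, formulated as an emulsion and diluted in water to a set herbicide amount, had been sprayed uniformly on soil over freshly sown seeds. Growth took place in a greenhouse at 25° C. to 30° C.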
# [3] = tested on: oval-leafed pondweed; assay: Test Example 1: herbicidal activity, application before weed generation under submerged conditions (Table 16, symbol C); assay type: in vivo, oval-leafed pondweed (Monochoria vaginalis); conditions: amount of applied herbicide 320 g/ha
# Outline: (§3)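 Alluvial soil was flooded to 4 cm depth, weed seeds were sown mixed and 2.5-leaf rice seedlings were transplanted. On sowing day, the compound's emulsion, diluted in water to a set dose, was applied to the water surface. Plants grew at 25–30 °C and were scored 0–5 after three weeks.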
# [4] = tested on: false cleavers; assay: Test Example 4: herbicidal effect by soil treatment (Table 19, symbol Q); assay type: in vivo, false cleavers (Galium spurium); conditions: amount of applied herbicide 320 g/ha
# Outline: as §2
# [5] = tested on: wild oat; assay: Test Example 4: herbicidal effect by soil treatment (Table 19, symbol I); assay type: in vivo, wild oat (Avena fatua); conditions: amount of applied herbicide 320 g/ha
# Outline: as §2
# [6] = tested on: southern crabgrass; assay: Test Example 5: herbicidal effect by foliage application, plastic box (Table 20, symbol F); assay type: in vivo, southern crabgrass (Digitaria ciliaris); conditions: foliage application, 320 g/ha, three weeks after application
# Outline: as §1
# [7] = tested on: blackgrass; assay: Test Example 4: herbicidal effect by soil treatment (Table 19, symbol J); assay type: in vivo, blackgrass (Alopecurus myosuroides); conditions: amount of applied herbicide 320 g/ha
# Outline: as §2
# [8] = tested on: lambsquarters; assay: Test Example 5: herbicidal effect by foliage application, plastic box (Table 20, symbol O); assay type: in vivo, lambsquarters (Chenopodium album); conditions: foliage application, 320 g/ha, three weeks after application
# Outline: as §1
# [9] = tested on: southern crabgrass; assay: Test Example 4: herbicidal effect by soil treatment (Table 19, symbol F); assay type: in vivo, southern crabgrass (Digitaria ciliaris); conditions: amount of applied herbicide 320 g/ha
# Outline: as §2
# [10] = tested on: late watergrass; assay: Test Example 1: herbicidal activity, application before weed generation under submerged conditions (Table 16, symbol A); assay type: in vivo, late watergrass (Echinochloa oryzicola); conditions: amount of applied herbicide 320 g/ha
# Outline: as §3
# [11] = tested on: green foxtail; assay: Test Example 4: herbicidal effect by soil treatment (Table 19, symbol G); assay type: in vivo, green foxtail (Setaria viridis); conditions: amount of applied herbicide 320 g/ha
# Outline: as §2
# [12] = tested on: persian speedwell; assay: Test Example 4: herbicidal effect by soil treatment (Table 19, symbol R); assay type: in vivo, Persian speedwell (Veronica persica); conditions: amount of applied herbicide 320 g/ha
# Outline: as §2
# [13] = tested on: Chinese sprangletop; assay: Test Example 3: herbicidal effect by foliage application, Wagner pot (Table 18, symbol D); assay type: in vivo, chinese sprangletop (Leptochloa chinensis); conditions: 320 g/ha
# Outline: (§4)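 Plants were sown in alluvial soil held under 0.1–0.5 cm standing water and grown 14 days in a greenhouse at 25–30 °C. An emulsifiable formulation, water-diluted to the set dose, was then sprayed onto the foliage, and effects were scored three weeks later using previously defined criteria.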
# [14] = tested on: Japanese bulrush; assay: Test Example 1: herbicidal activity, application before weed generation under submerged conditions (Table 16, symbol B); assay type: in vivo, Japanese bulrush (Schoenoplectus juncoides); conditions: amount of applied herbicide 320 g/ha
# Outline: as §3
# [15] = tested on: windgrass; assay: Test Example 5: herbicidal effect by foliage application, plastic box (Table 20, symbol L); assay type: in vivo, windgrass (Apera spica-venti); conditions: foliage application, 320 g/ha, three weeks after application
# Outline: as §1
# [16] = tested on: velvetleaf; assay: Test Example 5: herbicidal effect by foliage application, plastic box (Table 20, symbol M); assay type: in vivo, velvetleaf (Abutilon theophrasti); conditions: foliage application, 320 g/ha, three weeks after application
# Outline: as §1
# [17] = tested on: velvetleaf; assay: Test Example 4: herbicidal effect by soil treatment (Table 19, symbol M); assay type: in vivo, velvetleaf (Abutilon theophrasti); conditions: amount of applied herbicide 320 g/ha
# Outline: as §2
# [18] = tested on: green foxtail; assay: Test Example 5: herbicidal effect by foliage application, plastic box (Table 20, symbol G); assay type: in vivo, green foxtail (Setaria viridis); conditions: foliage application, 320 g/ha, three weeks after application
# Outline: as §1
# [19] = tested on: windgrass; assay: Test Example 4: herbicidal effect by soil treatment (Table 19, symbol L); assay type: in vivo, windgrass (Apera spica-venti); conditions: amount of applied herbicide 320 g/ha
# Outline: as §2
# [20] = tested on: false cleavers; assay: Test Example 5: herbicidal effect by foliage application, plastic box (Table 20, symbol Q); assay type: in vivo, false cleavers (Galium spurium); conditions: foliage application, 320 g/ha, three weeks after application
# Outline: as §1
# [21] = tested on: Italian ryegrass; assay: Test Example 5: herbicidal effect by foliage application, plastic box (Table 20, symbol K); assay type: in vivo, Italian ryegrass (Lolium multiflorum); conditions: foliage application, 320 g/ha, three weeks after application
# Outline: as §1
# [22] = tested on: barnyard grass; assay: Test Example 3: herbicidal effect by foliage application, Wagner pot (Table 18, symbol H); assay type: in vivo, barnyard grass (Echinochloa crus-galli); conditions: 320 g/ha
# Outline: as §4
# [23] = tested on: redroot pigweed; assay: Test Example 5: herbicidal effect by foliage application, plastic box (Table 20, symbol N); assay type: in vivo, redroot pigweed (Amaranthus retroflexus); conditions: foliage application, 320 g/ha, three weeks after application
# Outline: as §1
# [24] = tested on: wild oat; assay: Test Example 5: herbicidal effect by foliage application, plastic box (Table 20, symbol I); assay type: in vivo, wild oat (Avena fatua); conditions: foliage application, 320 g/ha, three weeks after application
# Outline: as §1
# [25] = tested on: redroot pigweed; assay: Test Example 4: herbicidal effect by soil treatment (Table 19, symbol N); assay type: in vivo, redroot pigweed (Amaranthus retroflexus); conditions: amount of applied herbicide 320 g/ha
# Outline: as §2
# [26] = tested on: chickweed; assay: Test Example 5: herbicidal effect by foliage application, plastic box (Table 20, symbol P); assay type: in vivo, common chickweed (Stellaria media); conditions: foliage application, 320 g/ha, three weeks after application
# Outline: as §1
# [27] = tested on: Italian ryegrass; assay: Test Example 4: herbicidal effect by soil treatment (Table 19, symbol K); assay type: in vivo, Italian ryegrass (Lolium multiflorum); conditions: amount of applied herbicide 320 g/ha
# Outline: as §2
# [28] = tested on: lambsquarters; assay: Test Example 4: herbicidal effect by soil treatment (Table 19, symbol O); assay type: in vivo, lambsquarters (Chenopodium album); conditions: amount of applied herbicide 320 g/ha
# Outline: as §2
# [29] = tested on: barnyard grass; assay: Test Example 5: herbicidal effect by foliage application, plastic box (Table 20, symbol H); assay type: in vivo, barnyard grass (Echinochloa crus-galli); conditions: foliage application, 320 g/ha, three weeks after application
# Outline: as §1
# [30] = tested on: rice flat sedge; assay: Test Example 3: herbicidal effect by foliage application, Wagner pot (Table 18, symbol E); assay type: in vivo, rice flat sedge (Cyperus iria); conditions: 320 g/ha
# Outline: as §4
# [31] = tested on: blackgrass; assay: Test Example 5: herbicidal effect by foliage application, plastic box (Table 20, symbol J); assay type: in vivo, blackgrass (Alopecurus myosuroides); conditions: foliage application, 320 g/ha, three weeks after application
# Outline: as §1
# [32] = tested on: chickweed; assay: Test Example 4: herbicidal effect by soil treatment (Table 19, symbol P); assay type: in vivo, common chickweed (Stellaria media); conditions: amount of applied herbicide 320 g/ha
# Outline: as §2
smiles,measurement,setting,value
CCn1nc(C)c(O)c(-c2c(-c3ccccc3OC)sc3cc(OC)ccc23)c1=O [3-084],"R: persian speedwell, herbicidal effect grade",[1],5 (Herbicidal rate of 90% or more (almost completely withered))
same,"H: barnyard grass, herbicidal effect grade",[2],0 (Herbicidal rate of 5% or less (almost no effect))
same,"Herbicidal effect, C: oval-leafed pondweed",[3],1 (Herbicidal rate of 5% or more and less than 20%)
same,"Q: false cleavers, herbicidal effect grade",[4],3 (Herbicidal rate of 40% or more and less than 70%)
same,"I: wild oat, herbicidal effect grade",[5],2 (Herbicidal rate of 20% or more and less than 40%)
same,"F: southern crabgrass, herbicidal effect grade",[6],3 (Herbicidal rate of 40% or more and less than 70%)
same,"J: blackgrass, herbicidal effect grade",[7],0 (Herbicidal rate of 5% or less (almost no effect))
same,"O: lambsquarters, herbicidal effect grade",[8],3 (Herbicidal rate of 40% or more and less than 70%)
same,"F: southern crabgrass, herbicidal effect grade",[9],0 (Herbicidal rate of 5% or less (almost no effect))
same,"Herbicidal effect, A: late watergrass",[10],0 (Herbicidal rate of 5% or less (almost no effect))
same,"G: green foxtail, herbicidal effect grade",[11],0 (Herbicidal rate of 5% or less (almost no effect))
same,"R: persian speedwell, herbicidal effect grade",[12],4 (Herbicidal rate of 70% or more and less than 90%)
same,herbicidal effect on Chinese sprangletop (D),[13],0 (Herbicidal rate of 5% or less (almost no effect))
same,"Herbicidal effect, B: Japanese bulrush",[14],3 (Herbicidal rate of 40% or more and less than 70%)
same,"L: windgrass, herbicidal effect grade",[15],3 (Herbicidal rate of 40% or more and less than 70%)
same,"M: velvetleaf, herbicidal effect grade",[16],4 (Herbicidal rate of 70% or more and less than 90%)
same,"M: velvetleaf, herbicidal effect grade",[17],0 (Herbicidal rate of 5% or less (almost no effect))
same,"G: green foxtail, herbicidal effect grade",[18],3 (Herbicidal rate of 40% or more and less than 70%)
same,"L: windgrass, herbicidal effect grade",[19],0 (Herbicidal rate of 5% or less (almost no effect))
same,"Q: false cleavers, herbicidal effect grade",[20],5 (Herbicidal rate of 90% or more (almost completely withered))
same,"K: Italian ryegrass, herbicidal effect grade",[21],1 (Herbicidal rate of 5% or more and less than 20%)
same,herbicidal effect on barnyard grass (H),[22],5 (Herbicidal rate of 90% or more (almost completely withered))
same,"N: redroot pigweed, herbicidal effect grade",[23],5 (Herbicidal rate of 90% or more (almost completely withered))
same,"I: wild oat, herbicidal effect grade",[24],3 (Herbicidal rate of 40% or more and less than 70%)
same,"N: redroot pigweed, herbicidal effect grade",[25],4 (Herbicidal rate of 70% or more and less than 90%)
same,"P: chickweed, herbicidal effect grade",[26],5 (Herbicidal rate of 90% or more (almost completely withered))
same,"K: Italian ryegrass, herbicidal effect grade",[27],1 (Herbicidal rate of 5% or more and less than 20%)
same,"O: lambsquarters, herbicidal effect grade",[28],2 (Herbicidal rate of 20% or more and less than 40%)
same,"H: barnyard grass, herbicidal effect grade",[29],3 (Herbicidal rate of 40% or more and less than 70%)
same,herbicidal effect on rice flat sedge (E),[30],3 (Herbicidal rate of 40% or more and less than 70%)
same,"J: blackgrass, herbicidal effect grade",[31],4 (Herbicidal rate of 70% or more and less than 90%)
same,"P: chickweed, herbicidal effect grade",[32],4 (Herbicidal rate of 70% or more and less than 90%)
